US4297279A, “Imidazoledicarboxylic acid derivative” (Ajinomoto Co., Inc., priority 1979, dated 1981)
Values after ≈ are worked out from the molar mass of the structure shown. Where a name gives a salt, the structure may show the parent alone.

Test system: Pseudomonas aeruginosa AJ 2116
Assay: Minimum Inhibitory Concentration (MIC) against Pseudomonas aeruginosa AJ 2116 in culture
Assay type: cell-based
Settings: not given
From the text: Comparative Minimun Inhibitory Concentrations (MIC) (the minimum concentration of the compound in micrograms per milliliter required to inhibit the growth of the test organism in a culture) obtained using Pseudomonas aeruginosa AJ 2116 as the test organism, are presented in Table 2.

| MIC (minimum concentration of the compound required to inhibit the growth of the test organism in a culture) | Compound |
| --- | --- |
| 50 µg/mL | CC(=O)OCC1=C(C(=O)O)N2C(=O)[C@@H](NC(=O)[C@H](NC(=O)c3[nH]cnc3C(=O)O)c3ccccc3)C2SC1 (stereo partly drawn) [Example 3a, 7-β-[D(-)-α-(4-carboxyimidazole-5-carboxamido)phenylacetamido]cephalosporanic acid] |

Same assay, conditions: AJ2116, read-out: MIC (minimum concentration of the compound required to inhibit the growth of the test organism in a culture)

| MIC | Compound |
| --- | --- |
| > 500 µg/mL | CC1(C)S[C@@H]2[C@H](NC(=O)[C@H](N)c3ccccc3)C(=O)N2[C@H]1C(=O)O [Ampicillin, reference compound] |
| 100 µg/mL (≈ 264 µM) | CC1(C)S[C@@H]2[C@H](NC(=O)C(C(=O)O)c3ccccc3)C(=O)N2[C@H]1C(=O)O (stereo partly drawn) [Carbenicillin, reference compound] |
| 12.5 µg/mL (≈ 25.6 µM) | CC1(C)S[C@@H]2[C@H](NC(=O)[C@H](NC(=O)c3nc[nH]c3C(=O)O)c3ccccc3)C(=O)N2[C@H]1C(=O)O [Example 3b, D-α-(4-carboxyimidazole-5-carboxamido)benzylpenicillin] |
| 12.5 µg/mL | CC1(C)S[C@@H]2[C@H](NC(=O)[C@H](NC(=O)c3nc[nH]c3C(=O)O)c3ccc(O)cc3)C(=O)N2[C@H]1C(=O)O [Example 3c, D-α-(4-carboximidazole-5-carboxamido)-p-hydroxybenzylpenicillin monohydrate] |
| 50 µg/mL (≈ 89.4 µM) | CC(=O)OCC1=C(C(=O)O)N2C(=O)[C@@H](NC(=O)[C@H](NC(=O)c3nc[nH]c3C(=O)O)c3ccc(O)cc3)[C@H]2SC1 [Example 3d, 7-β-[D(-)-α-(4-carboxyimidazole-5-carboxamido)-p-hydroxyphenylacetamido]cephalosporanic acid] |
| 50 µg/mL | Cn1nnnc1SCC1=C(C(=O)O)N2C(=O)[C@@H](NC(=O)[C@H](NC(=O)c3nc[nH]c3C(=O)O)c3ccccc3)[C@H]2SC1 [Example 4, 7-β-[D-(-)-α-(4-carboxyimidazole-5-carboxamido)phenylacetamido]-3-[[(1-methyl-1H-tetrazol-5-yl)thio]methyl]-3-cephem-4-carboxylic acid monohydrate] |
| 12.5 µg/mL | O=C([O-])C1=C(C[n+]2ccc(CCS(=O)(=O)O)cc2)CS[C@@H]2[C@H](NC(=O)[C@H](NC(=O)c3nc[nH]c3C(=O)O)c3ccccc3)C(=O)N12 [Example 5, 7-β-[D-(-)-α-(4-carboxyimidazole-5-carboxamido)phenylacetamido]-3-(4-α-sulphoethylpyridiniummethyl-3-cephem-4-carboxylic acid disodium salt trihydrate] |
| 12.5 µg/mL | O=C(O)Cc1ccc[n+](CC2=C(C(=O)[O-])N3C(=O)[C@@H](NC(=O)[C@H](NC(=O)c4nc[nH]c4C(=O)O)c4ccccc4)[C@H]3SC2)c1 [Example 6, disodium salt] |
